From patent publication US8460868B2, “Genetic markers for schizophrenia and bipolar disorder” (priority 2007, dated 2013) come the findings set out here.

In data set [1] the test system is patients with schizophrenia. As to the kind of experiment: CATIE trial drug response (>20% decrease in PANSS Total Score) by HPCAL1/SV2C genotype. It counts as in vivo, human. To be noted: for Response frequency: CATIE Phase 1; for OR vs. baseline / OR vs. Low: response; for OR vs. baseline: vs sample not segmented by genotype; for OR vs. Low: vs low scoring genotype(s). As for the experimental part:
(§1) The Clinical Antipsychotic Trials of Intervention Effectiveness (CATIE), a large federally funded clinical trial designed to assess the efficacy of antipsychotics in a real world setting, is a valuable resource for determining the role of genes in drug response (Stroup et al., Schizophr. Bull. 29:15-31 (2003); Lieberman et al., N. Engl. J. […] As part of the CATIE trial SNP genotyping was performed for roughly half of the trial participants (Sullivan et al., Mol. Psychiatry 13:570-584 (2008)). […] The design of the CATIE study has been described in detail by others (Stroup et al., Schizophr. Bull. 29:15-31 (2003); Lieberman et al., N. Engl. J. […] A total of 738 subjects consented to provide DNA for genetic study. […] Genotype and phenotype data for the CATIE trial were made available to qualified researchers through The NIMH Center for Collaborative Genetic Studies on Mental Disorders. For reduction to practice, we evaluated data for 417 patients with schizophrenia self reported as having exclusively European ancestry. […] Golden Helix, Bozeman, Mont.). To generate a P value, HelixTree calculates analysis of deviance (a likelihood ratio statistic) that compares the observed contingency table vs. an expected contingency table created with all the possible variations of the genetic model. […] The standard FDA registration trial definition of response of >20% decrease in Positive and Negative Syndrome Scale (PANSS Total Score) was used to assign subjects to a response category. […] Bull. 29:73-80 (2003)). […] The tables report odds ratios relative to the baseline values (sample not segmented by genotype) and relative to values for the low scoring, mutually exclusive genotype(s).

Data set [2] relates to patients with schizophrenia. As to the kind of experiment: CATIE trial side effects (discontinued for safety concerns, COMPEFF score 5) by HPCAL1/SV2C genotype. The note with it: for OR vs. Low / OR vs. baseline: side effects; for OR vs. Low: vs low scoring genotype(s); for OR vs. baseline: vs sample not segmented by genotype. It counts as in vivo, human. As for the experimental part: as §1

Setting [3] is: HPCAL1 rs11679891 genotype C/C (C).
[4] abbreviates: SV2C rs4610441 genotype C/C (C).
[5] abbreviates: SV2C rs10064352 genotype T/T (T).
Setting [6] is: SV2C rs10474464 genotype C/C (C).
[7] abbreviates: SV2C rs12152728 genotype C/C (C).
Where [8] appears, read: SV2C rs12522597 genotype G/G, A/G (G).
Setting [9] is: HPCAL1 rs7571627 genotype T/T (T).
[10] abbreviates: SV2C rs6453205 genotype C/C (C).
The mark [11] stands for this setting: HPCAL1 rs11679891 genotype A/C, C/C (C).
Setting [12] is: HPCAL1 rs13033617 genotype C/C (C).

As for `OCCOCCN1CCN(C2=Nc3ccccc3Sc3ccccc32)CC1` [quetiapine], the Response frequency in data set [1] (setting [3]) is listed as 0.6; in data set [1] (setting [4]) it was 0.6; in data set [1] (setting [5]) it was 0.6; in data set [1] (setting [6]), 0.6; in data set [1] (setting [7]) it was 0.5. The OR vs. baseline in data set [1] (setting [3]) was 3.05; in data set [1] (setting [4]) it was 3.05; in data set [1] (setting [5]), 3.05; in data set [1] (setting [6]), 3.05; in data set [1] (setting [7]), 2.03. In addition, the “OR vs. Low” value in data set [1] (setting [5]) was determined as 3.67; in data set [1] (setting [7]), 2.70.
Consider `O=C1Cc2cc(CCN3CCN(c4nsc5ccccc45)CC3)c(Cl)cc2N1` [ziprasidone], for which, in data set [1] (setting [8]), the Response frequency was 0.55, the “OR vs. Low” value was found to be 9.89 and the OR vs. baseline was 1.49. Moreover, in data set [2] (setting [9]), the “Frequency Study ending side effects” value is given as 0.33, the “OR vs. Low” value was found to be 4.98 and the OR vs. baseline stood at 1.56. Also, in data set [2] (SV2C rs246812 genotype A/A (A)), the “Frequency Study ending side effects” value is given as 0.5, the “OR vs. Low” value is on record as 6.14 and the OR vs. baseline is on record as 3.17.
As for `OCCN1CCN(CCCN2c3ccccc3Sc3ccc(Cl)cc32)CC1` [perphenazine], in data set [1] (setting [10]), the Response frequency is reported as 0.7, the “OR vs. Low” value is on record as 3.36 and the OR vs. baseline came out at 2.43. Moreover, in data set [2] (setting [11]), the “Frequency Study ending side effects” value was determined as 0.19, the “OR vs. Low” value is on record as more than 10 and the OR vs. baseline amounted to 1.44. Further, in data set [2] (setting [12]), the “Frequency Study ending side effects” value stood at 0.27, the “OR vs. Low” value worked out at 3.74 and the OR vs. baseline worked out at 2.27.
Turning to `Cc1nc2n(c(=O)c1CCN1CCC(c3noc4cc(F)ccc34)CC1)CCCC2` [risperidone], in data set [1] (SV2C rs4704297 genotype C/C, C/G (C)), the Response frequency was 0.45.
